Results on 2 molecules are retold here after patent publication US6818798B1, “Process for making a (3R,3′R)-zeaxanthin precursor” (University of Maryland, College Park, priority 2000, dated 2004).

Structures are written as SMILES.

What all share (format): physicochemical
Data set [1] is described as follows: Solubility in non-polar hydrocarbon / organic solvents. To be noted: pentane, hexane, heptane, cyclohexane, petroleum ether (b.p.=35-60° C.). As to the method: Such solvents include pentane, hexane, heptane, cyclohexane, petroleum ether (b.p.=35-60° C.) and the like. Based on this difference in solubility behavior, a number of processes were developed which allowed the partial separation of 3′-epilutein from (3R,3′R,6′R)-lutein. These methods are a) solvent extraction, b) preferential crystallization, c) Soxhlet extraction, d) enzymatic acylation, and e) supercritical extraction with carbon dioxide. When each of these methods is applied separately to a 1:1 mixture of (3R,3′R,6′R)-lutein and 3′-epilutein, the partial separation of these carotenoids was accomplished and 3′-epilutein was obtained in 77-95% enrichment. […] The enrichment of 3′-epilutein in poorly separated mixtures may be further increased by low-temperature crystallization of (3R,3′R,6′R)-lutein from a C1-4 alcohol. Alcohols suitable for this crystallization include ethanol, methanol, propanol, 2-propanol and the like. The temperature at which the crystallization may be performed is between about −80° C. and about −40° C. […]
While (3R,3′R,6′R)-lutein and (3R,3′R)-zeaxanthin are not acylated with lipase AK or lipase PS, 3′-epilutein undergoes acylation at C-3′ to give 3′-epilutein-3′-acetate. As mentioned above, due to the difference in solubility between (3R,3′R,6′R)-lutein and 3′-epilutein, the enzymatic acylation can be readily carried out in the above-mentioned organic solvents. […]

A further data set is described as follows: Solubility in hexane. To be noted: printed as solvent volume per mass. As to the method: As pointed out above, the solubility of 3′-epilutein in solvents such as pentane, hexane, heptane, and petroleum ether (b.p.=35-60° C.) is much higher than that of (3R,3′R,6′R)-lutein. However; large scale separation with these non-polar hydrocarbons alone would require large volumes of solvents and is not practical. For example, the low solubility of 3′-epilutein in hexane (13 ml/mg) is indicative of the large volumes of this solvent needed for the partial separation of 3′-epilutein from (3R,3′R,6′R)-lutein by virtue of their differential solubilities. Therefore, a co-solvent may be employed to increase the solubility of 3′-epilutein and at the same time reduce the volume of the hydrocarbon solvent. […] Preferred ethers include diethyl ether, TBME, diisopropyl ether and the like. Preferred non-polar hydrocarbon solvents include pentane, hexane, heptane, petroleum ether and the like. The preferred petroleum ether is that fraction which boils at 35-60° C. The ratio of non-polar hydrocarbon solvent (or petroleum ether) to ether may range from 4:1, to about 2:1, more preferably, about 3:1. One of ordinary skill in the art may determine other ratios with no more than routine experimentation.

Data set [2] in a line: Solubility in supercritical carbon dioxide. To be noted: 5 mg scale. How it is done: The partial separation of (3R,3′R,6′R)-lutein and 3′-epilutein was also found to be quite feasible by the use of supercritical fluid extraction with carbon dioxide.
5 mg of an epimeric mixture of (3R,3′R,6′R)-lutein and 3-epilutein prepared from 97% pure (3R,3′R,6′R)-lutein (Table 2) was mixed with 0.70 g of hydromatrix (mixture of silica gel and diatomaceous earth). This was extracted with carbon dioxide in a Model Prep-Master supercritical fluid extraction apparatus (Suprex-ISCO, Inc., Lincoln, Nebr.). The conditions were as follows: flow=2 ml/min, restrictor temperature=50° C., desorb temperature=10° C., oven temperature=35° C. A two step gradient was employed for extraction of 3′-epilutein. Step one used 100 g of carbon dioxide at 300 atmosphere and step two 50 g of carbon dioxide at 375 atmosphere. Total of 2.4 mg of carotenoids was extracted with this 150 g of carbon dioxide. The extracted carotenoids were shown by HPLC to consist of 3′-epilutein (83%), (3R,3′R,6′R)-lutein (13%), anhydrolutein (2%), and Z-luteins (2%). Approximately 2.5 mg of carotenoids remained in the hydromatrix; these were: (3R,3′R,6′R)-lutein (77%), 3′-epilutein (13%), and (3R,3′R)-zeaxanthin (10%).

For the molecule `CC1=C[C@@H](O)CC(C)(C)[C@H]1/C=C/C(C)=C/C=C/C(C)=C/C=C/C=C(C)/C=C/C=C(C)/C=C/C1=C(C)C[C@@H](O)CC1(C)C` [3′-epilutein, (3R,3′S,6′R)-lutein], in data set [1], the “solubility in non-polar solvents (in words)” value is on record as “slightly more soluble than (3R,3′R,6′R)-lutein”. In the data set “Solubility in hexane”, this molecule gave a solubility in hexane of 13 mL/mg. Further, the “solubility in supercritical carbon dioxide (in words)” value in data set [2] is “by far greater than that of (3R,3′R,6′R)-lutein and (3R,3′R)-zeaxanthin”.

For `CC(=O)OC1C=C(C)C(C=CC(C)=CC=CC(C)=CC=CC=C(C)C=CC=C(C)C=CC2=C(C)CC(O)CC2(C)C)C(C)(C)C1` (stereo not shown) [3′-epilutein-3′-acetate], in data set [1], the “solubility in non-polar solvents (in words)” value is “highly soluble”.
